Results: patent US8030083B2, “Method of analyzing protein structural affinity relationship” (Eisai R & D Management Co., Ltd., priority 2004, dated 2011)

How the values were obtained:
water solubility = assay type: physicochemical
CDK = conditions: Knockaert et al.; cited from earlier work
[1] = biological target: T1, mitochondrial malate dehydrogenase (mMDH) (Homo sapiens, UniProt P40926); conditions: Knockaert et al.; cited from earlier work
T1 sequence (P40926 25-338): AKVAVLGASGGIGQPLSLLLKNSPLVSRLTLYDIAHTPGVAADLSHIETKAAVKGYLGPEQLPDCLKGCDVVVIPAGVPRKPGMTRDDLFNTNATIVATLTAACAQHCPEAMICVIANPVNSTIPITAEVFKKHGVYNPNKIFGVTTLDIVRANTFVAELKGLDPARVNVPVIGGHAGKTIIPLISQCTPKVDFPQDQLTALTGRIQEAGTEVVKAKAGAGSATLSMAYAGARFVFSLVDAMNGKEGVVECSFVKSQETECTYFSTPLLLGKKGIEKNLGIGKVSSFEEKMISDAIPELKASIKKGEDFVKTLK

Compound | water solubility (water solubility) | inhibition of CDK (CDK) | inhibition of mMDH activity [1]
NS(=O)(=O)c1ccc(S(=O)(=O)Nc2cccc3c(Cl)c[nH]c23)cc1 [E7070] | poor in water solubility |  | 
O=C1Cc2c([nH]c3ccccc23)-c2ccccc2N1 [paullone] |  | inhibitor | inhibits mMDH activity with certainty
